Experimental data: US8263638B2, “Dosing regimens for ion channel modulating compounds” (priority 2004, dated 2012)

Assays:
[1] = system: atrial fibrillation (AF duration 3 hr-7 days; 8-45 days); assay: Effect of age, gender and prior rate control medications on conversion of AF to SR (Example 4); assay type: in vivo, human; details: for Number of Pts Converted to Sinus Rhythm / Pts (%) Converted to Sinus Rhythm: AF Duration 3 hr-7 days
Protocol: Patients (pts) were block randomized in a double-blind, controlled study in a 2:1 ratio to receive COMPOUND A or placebo, stratified by AF duration (3 hr-7 days; 8-45 days). COMPOUND A (3 mg/kg), or similar appearing placebo, were infused over 10-min, followed by a second infusion if AF was not terminated (2 mg/kg or placebo). The proportion of pts with AF duration 3 hr-7 days who had treatment-induced conversion to SR within 90 min was the primary endpoint. Logistic regression was used to examine the effect of age (<65 vs ≧65), gender, and a prior use of rate control medications (beta blockers, calcium antagonists, digoxin).

[2] = system: atrial fibrillation duration from 3 hours to 45 days; assay: Atrial Arrhythmia Conversion Trial 1, Phase III (Example 6); assay type: in vivo, human; details: for median time to conversion: responders
Protocol: This study was conducted to assess the efficacy and safety of COMPOUND A in the conversion of atrial fibrillation to sinus rhythm in humans. The study was a randomized, double-blind, placebo-controlled Phase III study.
Patients were randomized in a 2:1 ratio (COMPOUND A:placebo) and stratified by atrial fibrillation duration. The entire group of patients (pts) had atrial fibrillation duration from 3 hours to 45 days. One subgroup had atrial fibrillation duration from 3 hours to 7 days. Another subgroup had atrial fibrillation duration from 8 days to 45 days.
The primary endpoint of the study was the proportion of patients with atrial fibrillation duration of 3 hours to 7 days who had treatment-induced conversion of atrial fibrillation to sinus rhythm with 90 minutes. Secondary endpoints include the time-to-conversion of atrial fibrillation to sinus rhythm in patients with atrial fibrillation of 3 hours to 7 days and the proportion of patients with termination of atrial fibrillation within 90 minutes in the subgroup of patients with 8 days to 45 days of atrial fibrillation duration and in the entire group of patients with 3 hours to 45 days of atrial fibrillation duration.
Dosing was as follows: Placebo or 3.0 mg/kg of COMPOUND A was administered by infusion over a 10 minute period, followed by a 15-minute observation period. If atrial fibrillation was not terminated, placebo or 2.0 mg/kg of COMPOUND A was adminstered by infusion over a 10 minute period.
The patient population was randomized (n=[…]). […] There were 220 patients in the subgroup having 3 hours to 7 days atrial fibrillation. Of these 220 patients, 75 received placebo and 145 received COMPOUND A. There were 116 patients in the subgroup having 8 days to 45 days atrial fibrillation. Of these 116 patients, 40 received placebo and 76 received COMPOUND A.

[3] = 30 days following drug administration
[4] = 30-day follow-up period after dosing, n = 221
[5] = 24 hour period post-dosing, holter, n = 221
[6] = 24 hour time period following dosing, n = 221
[7] = non-responders with attempted cardioversion

## COc1ccc(CCO[C@@H]2CCCC[C@H]2N2CC[C@@H](O)C2)cc1OC.Cl [COMPOUND A, (1R,2R)-2-[(3R)-hydroxypyrrolidinyl]-1-(3,4-dimethoxyphenethoxy)cyclohexane monohydrochloride]
[1]; 3 hr-7 day group (n=75)
  median time to conversion: 11 min
[1]; [3]
  pts with serious adverse events (%): 13%
  pts with serious adverse events (number): 29
[1]; Men
  Number of Pts Converted to Sinus Rhythm: 53
  Pts (%) Converted to Sinus Rhythm: 52%
[1]; No Prior Rate Control Drugs
  Number of Pts Converted to Sinus Rhythm: 19
  Pts (%) Converted to Sinus Rhythm: 53%
[1]; Prior Rate Control Drugs
  Number of Pts Converted to Sinus Rhythm: 56
  Pts (%) Converted to Sinus Rhythm: 51%
[1]; Women
  Number of Pts Converted to Sinus Rhythm: 22
  Pts (%) Converted to Sinus Rhythm: 51%
[1]; age <65
  Number of Pts Converted to Sinus Rhythm: 49
  Pts (%) Converted to Sinus Rhythm: 56%
[1]; age ≧65
  Number of Pts Converted to Sinus Rhythm: 26
  Pts (%) Converted to Sinus Rhythm: 46%
[1]; in vivo
  drug-related Torsades de Pointes: No cases
[1]; primary end-point group, AF 3 hr-7 days, 3 mg/kg then 2 mg/kg, within 90 min
  patients converted to SR: 52%
[2]; [4]
  serious adverse events: Cardiac disorders (%): 10.0%
  serious adverse events: Cardiac disorders (number): 22
  serious adverse events: Infections and infestations (%): 1.4%
  serious adverse events: Infections and infestations (number): 3
  serious adverse events: Nervous system disorders (%): 0.0%
  serious adverse events: Nervous system disorders (number): 0
  serious adverse events: Respiratory, thoracic and mediastinal disorders (%): 1.8%
  serious adverse events: Respiratory, thoracic and mediastinal disorders (number): 4
  serious adverse events: Total (%): 13.1%
  serious adverse events: Total (number): 29
  serious adverse events: Vascular disorders (%): 1.4%
  serious adverse events: Vascular disorders (number): 3
[2]; [5]
  Monomorphic sustained ventricular tachycardia (%): 0.0%
  Monomorphic sustained ventricular tachycardia (number): 0
  Monomorphic unsustained aberrant condition (%): 1.4%
  Monomorphic unsustained aberrant condition (number): 3
  Monomorphic unsustained ventricular tachycardia (%): 0.9%
  Monomorphic unsustained ventricular tachycardia (number): 2
  Polymorphic sustained ventricular tachycardia (%): 0.0%
  Polymorphic sustained ventricular tachycardia (number): 0
  Polymorphic unsustained aberrant condition (%): 0.0%
  Polymorphic unsustained aberrant condition (number): 0
  Polymorphic unsustained ventricular tachycardia (%): 0.0%
  Polymorphic unsustained ventricular tachycardia (number): 0
  Torsades de Pointes (%): 0.0%
  Torsades de Pointes (number): 0
  Ventricular Rhythm >=5 beats: Total (%): 2.3%
  Ventricular Rhythm >=5 beats: Total (number): 5
  Ventricular escape rhythm (%): 0.0%
  Ventricular escape rhythm (number): 0
[2]; [6]
  treatment-emergent adverse event: Atrial fibrillation (%): 4%
  treatment-emergent adverse event: Atrial fibrillation (number): 8
  treatment-emergent adverse event: Cough (%): 5%
  treatment-emergent adverse event: Cough (number): 11
  treatment-emergent adverse event: Dysgeusia (%): 30%
  treatment-emergent adverse event: Dysgeusia (number): 66
  treatment-emergent adverse event: Hypotension (%): 6%
  treatment-emergent adverse event: Hypotension (number): 14
  treatment-emergent adverse event: Nausea (%): 9%
  treatment-emergent adverse event: Nausea (number): 20
  treatment-emergent adverse event: Paraesthesia (%): 11%
  treatment-emergent adverse event: Paraesthesia (number): 24
  treatment-emergent adverse event: Pruritus (%): 6%
  treatment-emergent adverse event: Pruritus (number): 13
  treatment-emergent adverse event: Sneezing (%): 16%
  treatment-emergent adverse event: Sneezing (number): 36
[2]; both the short duration subgroup and the entire group
  responders converted after the first dosing: 76%
[2]; in vivo
  responders relapsed into atrial fibrillation in the first 24 hours post-dosing: one
[2]; n = 221
  Electrical cardioversion was attempted (%): 43%
  Electrical cardioversion was attempted (number): 96
[2]; [7]
  Successfully converted by electrical cardioversion (%): 85%
  Successfully converted by electrical cardioversion (number): 82
[2]; entire group (3 hrs-45 days atrial fibrillation)
  median time to conversion: 11.5 min
[2]; short duration subgroup (3 hrs-7 days atrial fibrillation)
  median time to conversion: 11 min
